From patent publication US20110281951A1, “Compositions and methods for treating amyloidosis” (priority 1999, published 2011) come the findings set out here.

The structures appear in SMILES notation. “And” between values parts separate entries of the source, which are not always exact repeats. Equal entries are not always repeated.

The target in test [1] is T1, splenic Amyloid A fibrils (Mus musculus, UniProt P05367).
T1 construct: from tissue; host or cells: spleen of CBA/J mice (AEF/AgNO3-induced amyloidosis)
T1 sequence (P05367 20-95 limits assumed): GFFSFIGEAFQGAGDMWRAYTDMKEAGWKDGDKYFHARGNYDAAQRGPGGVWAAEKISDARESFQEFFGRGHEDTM
Description: Acute AEF-AgNO3-induced amyloidosis mouse model (secondary amyloidosis). The class given is in vivo, mice. The settings on record: for % PC (splenic AA fibrils, % of positive control): 5 days; for Activity (in vivo, secondary amyloidosis): overall grade over the concentrations tested. On the procedure:
The in vivo screening is based on the acute AEF-AgNO3-induced amyloidosis mouse model. The test is conducted on a total of 6 days and each compound administered in the drinking solution for a 5-day period.
Female mice of CBA/J strain are individually identified, weighed and assigned to a group of 5 animals following an acclimation period. The amyloidosis is induced by intravenous injection of 100 μg of AEF (amyloid enhancing factor) concomitantly with a subcutaneous injection of 0.5 ml of 2% of a solution of AgNO3. Animals in the negative control group are injected with saline only.
Twenty-four hours following the amyloidosis induction, the compound is added to a 1% solution of sucrose (vehicle) and distributed to animals in drinking bottles for a period of 5 days. Animals in the positive control group receive the vehicle only. Drinking solutions are made available ad libitum to each group of animals and the volume measured before and after use to calculate the consumption of each solution. Blood samples are collected for in vitro determination of plasma serum amyloid A levels.
On day 6, mice are sacrificed, weighed and organs such as spleen are existed and fixed in acid alcohol. Spleen samples are processed, embedded in paraffin wax and cut inyo sections. Spleen sections from each animal are stained with the Congo Red staining solution and the splenic Amyloid A fibrils aggregation evaluated by image analysis. Results are expressed as % of AA fibrils deposited in the splenic perifollicular area. Raw data is analyzed.
Mean of mouse body weight and the mean consumption of the drinking solution (ml) are compiled. Variation of the body weight before the induction and at the end of the assay is calculated (%). The dose level of the compound consumed (mg/kg/day) is calculated as well.
P-values for Student t-test and Mann-Whitney tests comparing a group to the positive control are calculated using GraphPad Prism computer software. The mean of the image analysis reading of spleen serious for a group is expressed as percentage of the mean of the image analysis readings for the positive control group (% PC).

Test [2] addresses T2, Aβ(1-40) (Homo sapiens, UniProt P05067).
T2 construct: Prepare a fresh 40 μm solution of Aβ(1-40) in 0.02M Tris, pH 7.4; made in house; host or cells: chemical synthesis (FMOC), HPLC purified
Put plainly: Circular dichroism analysis, pre-incubation assay, β-sheet at 218 nm. The settings on record: CD 218 nm, 0.02M Tris pH 7.4. Format: biochemical. Here is the method:
The assay is conducted as follows:
Instrument: JASCO J-715 Spectropolarimeter.
Cell/cuvette: Hellma quartz (QS) with 1.0 mm pathlength Room temperature. Wavelength interval: 250 nm-190 nm.
Band width: 1.0 nm Response time: 1 sec Scanning speed: 20 nm/min Number of accumulations/spectrum: 5
1. Prepare a fresh 40 μm solution of Aβ(1-40) in 0.02M Tris, pH 7.4.
2. Prepare a 1 mM solution of test compounds in 0.02M Tris, pH 7.4.
3. Combine equal volumes of the Aβ(1-40) and test compound solutions.
4. Incubate the mixtures for 19 h.
5. Take the CD spectrum using the parameters above.
6. Return the mixtures to the incubator and incubate to 43 h.
7. Take the CD spectrum using the parameters above. • Inhibition of Aβ40 assembly/aggregation is determined by comparing the amount of b-sheet structure) appearing at lambda=218 nm) obtained in control and in treated sample at each timepoint.
On the technique in general: Circular dichroism is the unequal absorption of left and right circularly polarised light.

The mark [3] stands for this setting: 6.25 mg/ml in drinking solution.
[4] abbreviates: 12.5 mg/ml in drinking solution.
[5] abbreviates: 25.0 mg/ml in drinking solution.

T2 sequence (P05067 672-711 limits assumed): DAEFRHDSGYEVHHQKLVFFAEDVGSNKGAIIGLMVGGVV

As to `COc1cc2c(cc1OC)CN(CCCS(=O)(=O)O)CC2` [I, 3-[2-(6,7-dimethoxy-1,2,3,4-tetrahydroisoquinolinyl)]-1-propanesulfonic acid], the “% PC (splenic AA fibrils, % of positive control)” value (shortened to “% PC”) in test [1] (setting [3]) is 87 % PC; in test [1] (setting [4]), 76 % PC and 68 % PC; in test [1] (setting [5]), 69% PC. Also, the “Activity (in vivo, secondary amyloidosis)” value (“Activity” below) in test [1] is “Moderate”.

For `O=S(=O)(O)CCCN1CCCc2ccccc21` [III, 3-[1-(1,2,3,4-tetrahydroquinolinyl)]-1-propanesulfonic acid], the “% PC” value in test [1] (3.5 mg/ml in drinking solution) is 113% PC; in test [1] (setting [3]), 87% PC; in test [1] (setting [4]) it was 54 % PC and 67 % PC and 56 % PC; in test [1] (setting [5]), 82 % PC and 77 % PC. In addition, the “Activity” value in test [1] is “Moderate”. Also, the “relative inhibition compared to Aβ alone, incubation time 0 h” value (“relative inhibition … incubation time 0 h” below) in test [2] was “— (No effect compared to Aβ alone)”. In addition, in test [2], the “relative inhibition compared to Aβ alone, incubation time 19 h” value (from here on “relative inhibition … incubation time 19 h”) was “+ (+: 0-25%)”. Also, in test [2], the “relative inhibition compared to Aβ alone, incubation time 43 h” value (“relative inhibition … incubation time 43 h” below) is recorded as “++ (++: 25-50%)”.

Regarding `COc1ccc2c(c1)CCN(CCCS(=O)(=O)O)C2` [IX, 3-[2-(6-methoxy-1,2,3,4-tetrahydroisoquinolinyl)]-1-propanesulfonic acid], the “% PC” value in test [1] (setting [3]) was 74 % PC and 40 % PC. In test [1] (setting [4]), the “% PC” value is 64 % PC and 38 % PC. Also, the “Activity” value in test [1] was “Active”. In test [2], the “relative inhibition … incubation time 0 h” value was “+ (+: 0-25%)”; the “relative inhibition … incubation time 19 h” value was “+++ (+++: 50-75%)”; the “relative inhibition … incubation time 43 h” value is “++ (++: 25-50%)”.

Consider `N[C@@H](Cc1cccc(CS(=O)(=O)O)c1)C(=O)O` [LVXIII, 3-Sulfomethyl-L-phenylalanine], for which, in test [2], the “relative inhibition … incubation time 0 h” value was “— (No effect compared to Aβ alone)”; the “relative inhibition … incubation time 19 h” value is on record as “++++ (++++: 75-100%)”; the “relative inhibition … incubation time 43 h” value is “— (No effect compared to Aβ alone)”.

On to `O=S(=O)(O)CCCN1CCc2ccccc21` [VII, 3-(1-indolinyl)-1-propanesulfonic acid], for which the “% PC” value in test [1] (setting [3]) was 94 % PC and 91 % PC. For the same compound, the “% PC” value in test [1] (setting [4]) is 83% PC. The “% PC” value in test [1] (setting [5]) is 71 % PC and 97 % PC. In addition, the “Activity” value in test [1] is “Moderate”. In addition, in test [2], the “relative inhibition … incubation time 0 h” value was “+ (+: 0-25%)”; the “relative inhibition … incubation time 19 h” value is listed as “++ (++: 25-50%)”; the “relative inhibition … incubation time 43 h” value is reported as “++ (++: 25-50%)”.

`CC(=O)NCCCS(=O)(=O)O` [VIII, 3-acetylamino-1-propanesulfonic acid]: in test [2], the “relative inhibition … incubation time 0 h” value is listed as “+ (+: 0-25%)”; the “relative inhibition … incubation time 19 h” value was “++++ (++++: 75-100%)”; the “relative inhibition … incubation time 43 h” value is listed as “+++ (+++: 50-75%)”.

Turning to `O=C(NCCCS(=O)(=O)O)c1ccccc1` [X, 3-benzoylamino-1-propanesulfonic acid], in test [2], the “relative inhibition … incubation time 0 h” value is on record as “+ (+: 0-25%)”; the “relative inhibition … incubation time 19 h” value was “++ (++: 25-50%)”; the “relative inhibition … incubation time 43 h” value was “++ (++: 25-50%)”.

For `O=S(=O)(O)CCCN1CCC2=C(CCCC2)C1` [XVIII, 3-[2-(1,2,3,4,5,6,7,8-octahydroisoquinolinyl)]-1-propanesulfonic acid], the “% PC” value is recorded as 74% PC in test [1] (3.13 mg/ml in drinking solution) and 86% PC in test [1] (setting [3]). The “Activity” value in test [1] is reported as “Moderate”.

On to `O=C[C@H](NCCCS(=O)(=O)O)[C@@H](O)[C@H](O)[C@H](O)CO` [XX, 2-deoxy-2-(3-sulfopropyl)amino-d-glucose], for which the “% PC” value in test [1] (setting [3]) is given as 94% PC; in test [1] (setting [4]), 69% PC. The “Activity” value in test [1] is “Moderate”.
